From ChEMBL document CHEMBL3098042, “New carbocyclic nucleoside analogues with a bicyclo[2.2.1]heptane fragment as sugar moiety; synthesis, X-ray crystallography and anticancer activity” (2014) come the findings set out here.

One experiment relates to T47D. The experiment is described as follows: Growth inhibition of human T47D cells at 10^-5 M relative to control. As to conditions: values are per cent of control. Format: functional.
The next experiment concerns MDA-MB-468. Put plainly: Growth inhibition of human MDA-MB-468 cells at 10^-5 M relative to control. In kind it is functional. As to conditions: values are per cent of control.
Another experiment concerns MCF7. Put plainly: Growth inhibition of human MCF7 cells at 10^-5 M relative to control. Format: functional. As to conditions: values are per cent of control.
Experiment [1] can be described thus: Growth inhibition of human UO31 cells at 10^-5 M relative to control. Format: functional. The settings on record: UO-31, values are per cent of control.
In the next experiment the test system is PC-3. The experiment is described as follows: Growth inhibition of human PC3 cells at 10^-5 M relative to control. Format: functional. As to conditions: values are per cent of control.
Experiment [2] can be described thus: Growth inhibition of human RXF393 cells at 10^-5 M relative to control. In kind it is functional. As to conditions: RXF 393, values are per cent of control.
Experiment [3] in a line: Growth inhibition of human NCI-ADR-RES cells at 10^-5 M relative to control. In kind it is functional. As to conditions: values are per cent of control.
Another experiment has as its system CAKI-1. The experiment is described as follows: Growth inhibition of human CAKI-1 cells at 10^-5 M relative to control. Format: functional. The settings on record: values are per cent of control.
The nature of experiment [4]: Growth inhibition of human OVCAR5 cells at 10^-5 M relative to control. Format: functional. As to conditions: OVCAR-5, values are per cent of control.
Another experiment concerns LOX IMVI. Put plainly: Growth inhibition of human LOXIMVI cells at 10^-5 M relative to control. As to conditions: values are per cent of control. In kind it is functional.
For a further experiment, the system named is SK-MEL-5. The experiment is described as follows: Growth inhibition of human SK-MEL-5 cells at 10^-5 M relative to control. Format: functional. As to conditions: values are per cent of control.
A further experiment deals with SNB-75. Put plainly: Growth inhibition of human SNB75 cells at 10^-5 M relative to control. In kind it is functional. The settings on record: values are per cent of control.
The subject of a further experiment is HCT-116. The experiment is described as follows: Growth inhibition of human HCT116 cells at 10^-5 M relative to control. In kind it is functional. As to conditions: values are per cent of control.
The subject of another experiment is HCT-15. The experiment is described as follows: Growth inhibition of human HCT15 cells at 10^-5 M relative to control. The settings on record: values are per cent of control. In kind it is functional.
In the next experiment the test system is NCI-H522. The experiment is described as follows: Growth inhibition of human NCI-H522 cells at 10^-5 M relative to control. The settings on record: values are per cent of control. In kind it is functional.
The next experiment has as its system MOLT-4. Put plainly: Growth inhibition of human MOLT4 cells at 10^-5 M relative to control. Format: functional. The settings on record: values are per cent of control.
In a further experiment the test system is SR. The experiment is described as follows: Growth inhibition of human SR cells at 10^-5 M relative to control. The settings on record: values are per cent of control. In kind it is functional.
In a further experiment the test system is K562. The experiment is described as follows: Growth inhibition of human K562 cells at 10^-5 M relative to control. Format: functional. As to conditions: values are per cent of control.
In a further experiment the test system is HL-60(TB). The experiment is described as follows: Growth inhibition of human HL-60(TB) cells at 10^-5 M relative to control. In kind it is functional. The settings on record: values are per cent of control.
For a further experiment, the system named is CCRF-CEM. The experiment is described as follows: Growth inhibition of human CCRF-CEM cells at 10^-5 M relative to control. The settings on record: values are per cent of control. In kind it is functional.
Another experiment relates to IGROV-1. Put plainly: Growth inhibition of human IGROV1 cells at 10^-5 M relative to control. As to conditions: values are per cent of control. In kind it is functional.
In another experiment the test system is NCI-H322M. The experiment is described as follows: Growth inhibition of human NCI-H322M cells at 10^-5 M relative to control. In kind it is functional. As to conditions: values are per cent of control.
In the next experiment the test system is NCI-H226. Put plainly: Growth of human NCI-H226 cells at 10^-5 M relative to control.

Take `OC[C@H]1[C@@H]2C[C@H](n3cnc4c(NC5CCCC5)ncnc43)[C@H]1C[C@@H]2Cl`: the growth, % of control at 10 µM in the experiment on T47D was found to be 94.1%; in the experiment on MDA-MB-468, 102%; in the experiment on MCF7 it was 97.2%; in [1], 99.6%; in the experiment on PC-3 it was 95.3%; in [2], 104%. Further, the growth, % of control at 10 µM in experiment [3] was found to be 103%; with CAKI-1 it was 99%; in experiment [4], 98.8%; in the experiment with LOX IMVI, 89.7%; in the experiment with SK-MEL-5, 95.7%; in the experiment on SNB-75 it was 88%. Also, the growth, % of control at 10 µM was found to be 99.8% in the experiment with HCT-116; 93.7% in the experiment on HCT-15; 101% in the experiment on NCI-H522; 87.1% in the experiment with MOLT-4; 86.5% in the experiment on SR; 93.1% in the experiment on K562. In addition, the growth, % of control at 10 µM is 118% in the experiment with HL-60(TB) and 83.7% in the experiment with CCRF-CEM.
As to `OC[C@H]1[C@@H]2C[C@H](n3cnc4c(NCCc5ccccc5)ncnc43)[C@H]1C[C@@H]2Cl`, the growth, % of control at 10 µM was 86.8% with T47D; 89.4% with MDA-MB-468; 89.9% in the experiment on MCF7; 73.8% in experiment [1]; 89.1% with PC-3; 87% in [2]. The growth, % of control at 10 µM in experiment [3] worked out at 88.2%; in the experiment on CAKI-1, 96%; in experiment [4], 104%; in the experiment on IGROV-1, 105%; in the experiment with LOX IMVI, 92.7%; in the experiment on SK-MEL-5, 73.9%. In addition, the growth, % of control at 10 µM turned out to be 106% in the experiment on SNB-75; 101% in the experiment with HCT-116; 81.7% in the experiment with HCT-15; 99.5% with NCI-H322M; 83.3% with MOLT-4; 84.1% with SR. For the same molecule, the results for the growth, % of control at 10 µM in the experiment with K562, in the experiment on HL-60(TB) and in the experiment with CCRF-CEM were 91.1%, 120% and 87.6%, respectively.
Consider `CN1CCN(c2ncnc3c2ncn3[C@H]2C[C@H]3[C@H](CO)[C@@H]2C[C@@H]3Cl)CC1`, for which the growth, % of control at 10 µM in the experiment with T47D is 100%; with MDA-MB-468, 101%; in the experiment on MCF7, 84%; in experiment [1] it was 78.5%; with PC-3, 96.2%; in [2] it was 111%. Also, the growth, % of control at 10 µM in experiment [3] turned out to be 100%; in the experiment with CAKI-1 it was 98.4%; in experiment [4], 96.4%; in the experiment on IGROV-1, 92.7%; with LOX IMVI it was 98%; in the experiment on SK-MEL-5, 99.4%. For the same molecule, the growth, % of control at 10 µM stood at 107% with SNB-75; 101% in the experiment with HCT-116; 97.7% in the experiment with HCT-15; 92.7% in the experiment on NCI-H322M; 83.4% in the experiment on MOLT-4; 81% in the experiment on SR. In addition, the growth, % of control at 10 µM is 107% in the experiment on K562, 86% in the experiment on HL-60(TB), 90.5% in the experiment on CCRF-CEM and 102% with NCI-H226.
